Reference: US20260224613A1, “Use Of Inorganic Nitrate For Preventing Restenosis And/Or Device Thrombosis” (Queen Mary University of London, priority 2023, published 2026)

Assays:
[1] = system: Human Coronary Arterial Endothelial Cells (HCAEC); details: NaNO2 3 μM; hypoxia 0.1% O2 24 h, re-oxygenation 8, 24 and 48 h; FIG. 2
Procedure: (§1) FIG. 2—Effects of NaNO2 on cell proliferation of Human Coronary Arterial Endothelial Cells (HCAEC) and Human Coronary Arterial Smooth Muscle Cells (HCSMC) exposed to Ischaemia/Reperfusion injury. Cell Count of HCAEC and HCASMC respectively under hypoxia (0.1% O2, 24 h) and re-oxygenation (normoxia, 8, 24 and 48 h post ischaemia)) in the absence and presence of NaNO2 3 μM. n=7/group for HCAEC and n=5/group for HCASMC. Results are expressed as % changes of the respective matched normoxia controls. Data represent mean±SEM of the number of independent experiments performed as indicated above. Statistical significance determined using two-way ANOVA followed by post-test comparing response at each timepoint between treatments determined using Sidak's multiple comparison test.

[2] = system: Human Coronary Arterial Smooth Muscle Cells (HCSMC); details: NaNO2 3 μM; hypoxia 0.1% O2 24 h, re-oxygenation 8, 24 and 48 h; FIG. 2
Procedure: as §1

SMILES: O=N[O-].[Na+] [nitrite, NaNO2]
- endothelial cell growth following an ischaemia-reperfusion insult [1]: improves
- growth of vascular smooth muscle cells following an ischaemia-reperfusion insult [2]: suppressing
